Holding throughout (assay type): cell-based
Test [1] concerns the target T1, ASCT2 (rASCT2) (Rattus norvegicus, UniProt D3ZJ25, D402N).
T1 construct: gene Slc1a5; rASCT2 mutant expressed in HEK293T cells
T1 sequence (D3ZJ25 1-555 D402N): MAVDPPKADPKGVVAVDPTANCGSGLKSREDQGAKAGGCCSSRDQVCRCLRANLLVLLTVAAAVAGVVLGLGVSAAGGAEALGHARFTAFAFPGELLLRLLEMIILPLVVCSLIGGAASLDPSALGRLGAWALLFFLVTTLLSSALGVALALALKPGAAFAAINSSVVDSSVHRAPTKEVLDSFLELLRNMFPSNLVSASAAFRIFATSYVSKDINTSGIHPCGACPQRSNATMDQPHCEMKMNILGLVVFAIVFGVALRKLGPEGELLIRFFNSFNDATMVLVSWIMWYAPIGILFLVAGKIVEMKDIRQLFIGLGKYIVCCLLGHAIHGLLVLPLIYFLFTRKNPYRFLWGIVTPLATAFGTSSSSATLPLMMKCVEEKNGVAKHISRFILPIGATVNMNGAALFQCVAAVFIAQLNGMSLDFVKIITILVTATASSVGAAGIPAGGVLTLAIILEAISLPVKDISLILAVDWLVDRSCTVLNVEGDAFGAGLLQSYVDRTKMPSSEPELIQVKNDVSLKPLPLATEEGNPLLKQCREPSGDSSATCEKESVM
Briefly: whole-cell patch clamp, anion current dose response at […] Na+.

The target of test [2] is T2, ASCT2 (rASCT2) (Rattus norvegicus, UniProt D3ZJ25, D489N).
T2 construct: gene Slc1a5; rASCT2 mutant expressed in HEK293T cells
T2 sequence (D3ZJ25 1-555 D489N): T1 sequence (D3ZJ25 1-555 D402N) with N402D, D489N
The test is described as above.

Test [3] has as its target T3, ASCT2 (rASCT2) (Rattus norvegicus, UniProt D3ZJ25).
T3 construct: gene Slc1a5; rASCT2 cDNA in pBK-CMV, expressed in HEK293T cells
T3 sequence (D3ZJ25 1-555): T1 sequence (D3ZJ25 1-555 D402N) with N402D
Briefly: whole-cell patch clamp (leak anion current block dose response; rapid solution exchange and displacement by serine).

SMILES strings stand for the structures. Positions count from the first letter of the chain named.

On to `O=C(O[C@@H]1CN[C@H](C(=O)O)C1)c1ccc(-c2ccccc2)cc1` [Lc-BPE, L-cis hydroxyproline biphenyl ester], for which the concentration for half-maximal inhibition (IC50) at ASCT2 (rASCT2) [1] turned out to be 1.6 ± 0.1 µM; on ASCT2 (rASCT2) [2], 4.4 ± 0.8 µM; on ASCT2 (rASCT2) [3] it was 0.83 ± 0.2 µM.

The values above are taken from article PMC11193019, “Transient kinetics reveal the mechanism of competitive inhibition of the neutral amino acid transporter ASCT2” (The Journal of Biological Chemistry, 2024).
